Results from US20080311045A1, “Polymersomes for Use in Acoustically Mediated Intracellular Drug Delivery in vivo” (Biovaluation & Analysis, Inc., priority 2007, published 2008).

Legend:
[1] = Laser-photobleaching lipid probe diffusivity in membranes; format: physicochemical
[2] = Micropipette aspiration of polymersome membranes (elastic moduli, rupture, toughness); format: physicochemical; settings: micropipette aspiration at 23° C.
Experimental: A tool that has been used to measure many of the material properties of bilayer vesicles is, for example, “micropipette aspiration.” In micropipette aspiration, the rheology and material properties of micron-sized objects are measured using glass pipettes. Small, micron diameter pipettes are used to pick up, deform, and manipulate micron-sized objects, such as giant lipid vesicles. The aspiration pressure is controlled by manometers, in which the hydrostatic pressure in a reservoir connected to the micropipette is varied in relation to a fixed reference.
A deformable object is aspirated using a pressure driving force—or suction pressure—ΔP, and the object is drawn within the pipette to a projection length LP. […] The bending modulus is measured by exerting small tensions on the membrane, to smooth out thermally driven surface undulations. […] Procedures for this important technique and its many modification are readily available to those skilled in the art. […]
Analogous to a lipid bilayer, at low but increasing aspiration pressures, the thermally undulating polymersome membrane is progressively smoothed, increasing the projected area logarithmically with tension, τ. From the slope of this increase (i.e., in tension units of mN/m) versus the fractional change, α, in vesicle area, the bending modulus, Kb, is calculated (see, e.g., Evans et al., 1990) with the following equation: […]

## CCCCCCCC/C=C\CCCCCCCC(=O)O[C@H](COC(=O)CCCCCCCCCCCCCCCCC)COP(=O)([O-])OCC[N+](C)(C)C [SOPC, 1-stearoyl-2-oleoyl phosphatidylcholine]
[1]
  lipid probe diffusivity: approximately 3×10^−8 cm^2/s
[2]
  area expansion modulus, Ka: ~180 mN/m
